Patent publication US9169252B2 (BRISTOL-MYERS SQUIBB COMPANY, priority 2014, dated 2015)
Where two headings read alike, the source gives them in different places.

Experiments:
IRAK4 = IRAK4 (Homo sapiens (Human), UniProt Q9NWZ3); assay: IRAK4 Inhibition Assay; type: biochemical; conditions: ATP 500 μM; IRAK4 0.6 nM; read-out: IRAK4 IC50
Procedure, shortened: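 Mobility-shift readout: fluorescent substrate and phosphoproduct resolved electrophoretically on Caliper LabChip 3000 after EDTA quench (35 mM). Enzyme reaction of IRAK4, substrates and test compound ran 60 min at room temperature.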

[1] = test system: TLR2 induced IL-6 in peripheral blood mononuclear cells (PBMCs); assay: PBMC TLR2 Induced IL-6 Assay; type: cell-based, human; conditions: human PBMCs, lipoteichoic acid stimulated, IL-6 by ELISA; for EC50: read-out: Cell EC50; for IC50: read-out: Cell IC50
Procedure, shortened: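 Lipoteichoic acid at 10 µg/ml served as TLR2 stimulus for 5 hours, following a 30-minute compound pretreatment at 37° C. Cells were Ficoll-isolated human PBMCs, 250000 cells/well, cultured in RPMI plus 10% heat-inactivated FCS.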

IRAK4, sequence (Q9NWZ3 whole entry, species assumed): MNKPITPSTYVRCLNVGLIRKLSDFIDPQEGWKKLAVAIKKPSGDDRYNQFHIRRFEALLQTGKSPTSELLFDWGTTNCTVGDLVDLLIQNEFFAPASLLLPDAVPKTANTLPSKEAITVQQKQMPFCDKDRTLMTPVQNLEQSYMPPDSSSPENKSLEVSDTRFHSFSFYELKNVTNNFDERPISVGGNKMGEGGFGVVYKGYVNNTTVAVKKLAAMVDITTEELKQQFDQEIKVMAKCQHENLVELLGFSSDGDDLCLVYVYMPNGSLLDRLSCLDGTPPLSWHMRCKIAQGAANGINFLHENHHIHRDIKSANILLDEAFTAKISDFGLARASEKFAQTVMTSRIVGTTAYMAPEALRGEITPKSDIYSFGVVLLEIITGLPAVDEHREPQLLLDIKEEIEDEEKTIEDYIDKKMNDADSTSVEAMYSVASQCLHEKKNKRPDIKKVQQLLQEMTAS

SMILES | IC50 (IRAK4) | EC50 ([1]; Homo sapiens, PBMC) | IC50 ([1]; Homo sapiens, PBMC) | EC50 [1]
Cn1nnnc1-c1ccc(Nc2cc(-n3ncc4cc(C#N)cnc43)ncc2C(=O)NC[C@@H](F)C(C)(C)O)cc1 [Example 527] | 3 nM | 228 nM |  | 
COC(=O)N1CC(Nc2cc(-n3ncc4cc(C#N)cnc43)ncc2C(=O)NC[C@@H](F)C(C)(C)O)C1 [Example 542] | 7.3 nM |  | 973 nM | 
CC(C)(O)[C@H](F)CNC(=O)c1cnc(N2CCc3cc(C#N)cnc32)cc1NC1COC1 [Example 549] | 16.8 nM | 413 nM | 757 nM | 
CC(C)(O)[C@H](F)CNC(=O)c1cnc(-n2ncc3cc(Cl)cnc32)cc1NC1COC1 [Example 551] | 12.6 nM |  | 212 nM | 
CO[C@H]1CC[C@H](NC(=O)c2cnc(-n3ncc4cc(C#N)cnc43)cc2NC2COC2)CC1 [Example 552] | 13.4 nM |  | 213 nM | 
CC(C)(O)[C@H]1CC[C@H](NC(=O)c2cnc(-n3ncc4cc(Cl)cnc43)cc2NC2COC2)CC1 [Example 556] | 6.2 nM |  | 305 nM | 
CC(C)CCNC(=O)c1cnc(-n2ncc3cc(C#N)cnc32)cc1NC1COC1 [Example 557] | 5.1 nM |  | 475 nM | 
CCCCNC(=O)c1cnc(-n2ncc3cc(C#N)c(N)nc32)cc1NC1COC1 [Example 559] | 5.3 nM |  | 18 nM | 
CC(C)CCNC(=O)c1cnc(-n2ncc3cc(C#N)c(N)nc32)cc1NC1COC1 [Example 560] | 3.4 nM |  | 254 nM | 
CC(C)(O)[C@H](F)CNC(=O)c1cnc(-n2ncc3cc(F)cnc32)cc1NC1CCOCC1 [Example 562] | 12.5 nM | 255 nM |  | 
CC(C)(O)[C@H](F)CNC(=O)c1cnc(-n2ncc3cc(C#N)cnc32)cc1NCCC(F)(F)F [Example 563, (R)-6-(5-Cyano-1H-pyrazolo[3,4-b]pyridin-1-yl)-N-(2-fluoro-3-hydroxy-3-methylbutyl)-4-((3,3,3-trifluoropropyl)amino)nicotinamide] | 5 nM | 159 nM |  | 
COc1cnc(NC(=O)c2cnc(-n3ncc4cc(C#N)cnc43)cc2NC(C)C)cn1 [Example 564] | 20.1 nM | 659 nM |  | 
CC(C)Nc1cc(-n2ncc3cc(C#N)cnc32)ncc1C(=O)NCc1nn[nH]n1 [Example 566] | 17.2 nM | 637 nM |  | 
CC(C)Nc1cc(N2CCc3cc(C#N)cnc32)ncc1C(=O)NC[C@@H](F)C(C)(C)O [Example 567] | 9.9 nM | 164 nM | 264 nM | 
CC(C)[C@@H](CO)Nc1cc(-n2ncc3cc(C#N)cnc32)ncc1C(=O)NC[C@@H](F)C(C)(C)O [Example 569] | 13 nM | 242 nM |  | 
CC(C)(O)[C@H](F)CNC(=O)c1cnc(-n2ncc3cc(C#N)cnc32)cc1NCC(C)(C)N1CCOCC1 [Example 570] | 10.7 nM | 425 nM |  | 
CC(C)(C)CNc1cc(-n2ncc3cc(C#N)cnc32)ncc1C(=O)NC[C@@H](F)C(C)(C)O [Example 576] | 5.8 nM |  | 153 nM | 
CCNc1cc(-n2ncc3cc(C#N)c(N)nc32)ncc1C(=O)NC[C@@H](F)C(C)(C)O [Example 577] | 3.2 nM |  | 175 nM | 
CCCNc1cc(-n2ncc3cc(C#N)c(N)nc32)ncc1C(=O)NC[C@@H](F)C(C)(C)O [Example 578] | 2.6 nM |  | 218 nM | 
CCNc1cc(-n2ncc3cnc(N)nc32)ncc1C(=O)NC[C@@H](F)C(C)(C)O [Example 580] | 10.7 nM |  | 487 nM | 
C[C@@H](F)CNc1cc(-n2ncc3cc(C#N)cnc32)ncc1C(=O)NC[C@@H](F)C(C)(C)O [Example 582] | 3.8 nM |  | 109 nM | 
CC(C)Nc1cc(-n2ncc3cc(C#N)cnc32)ncc1C(=O)NC1CCN(C(=O)C2CN(S(C)(=O)=O)C2)CC1 [Example 584] | 10 nM | 209 nM | 508 nM | 
CC(C)(O)[C@H](F)CNC(=O)c1cnc(-n2ncc3cc(C#N)cnc32)cc1NCCNS(C)(=O)=O [Example 586] | 9.7 nM |  | 259 nM | 
CC[C@@H](CO)Nc1cc(-n2ncc3cc(C#N)cnc32)ncc1C(=O)NC[C@@H](F)C(C)(C)O [Example 588] | 4.4 nM |  | 506 nM | 
CC[C@@H](CO)Nc1cc(-n2ncc3cc(Cl)cnc32)ncc1C(=O)NC[C@@H](F)C(C)(C)O [Example 589] | 4.1 nM |  | 361 nM | 
C[C@H](F)CNc1cc(-n2ncc3cc(C#N)c(N)nc32)ncc1C(=O)NC[C@@H](F)C(C)(C)O [Example 590] | 1.9 nM |  | 129 nM | 

More lines, main results first:

IC50 (IRAK4) | SMILES | EC50 ([1]; Homo sapiens, PBMC) | IC50 ([1]; Homo sapiens, PBMC) | EC50 [1]
3.3 nM | CC(C)(O)[C@H](F)CNC(=O)c1cnc(-n2ncc3cc(C#N)cnc32)cc1Nc1cccc(C#N)c1F [Example 528] | 91 nM | 326 nM | 
2.2 nM | Cn1cc(-c2ccc(Nc3cc(-n4ncc5cc(C#N)cnc54)ncc3C(=O)NC[C@@H](F)C(C)(C)O)cc2)cn1 [Example 531] |  | 67 nM | 
5.5 nM | CC(C)(O)[C@H](F)CNC(=O)c1cnc(-n2ncc3cc(C#N)cnc32)cc1N[C@@H]1CCN(c2ncc(F)cn2)C1 [Example 532, 6-(5-Cyano-1H-pyrazolo[3,4-b]pyridin-1-yl)-N—((R)-2-fluoro-3-hydroxy-3-methylbutyl)-4-(((R)-1-(5-fluoropyrimidin-2-yl)pyrrolidin-3-yl)amino)nicotinamide] |  |  | 127 nM
10.3 nM | CC(C)(O)[C@H](F)CNC(=O)c1cnc(-n2ncc3cc(C#N)cnc32)cc1N[C@H]1CCN(c2ncc(F)cn2)C1 [Example 533] | 194 nM |  | 
4 nM | CC(C)(O)[C@H](F)CNC(=O)c1cnc(-n2ncc3cc(C#N)cnc32)cc1NC1CCN(c2ccccc2)CC1 [Example 535] | 185 nM |  | 
8.1 nM | COc1cnc(N2CC[C@@H](Nc3cc(-n4ncc5cc(C#N)cnc54)ncc3C(=O)NC[C@@H](F)C(C)(C)O)C2)nc1 [Example 536] | 189 nM |  | 
6.8 nM | CC(C)(O)[C@H](F)CNC(=O)c1cnc(-n2ncc3cc(C#N)cnc32)cc1N[C@@H]1CCN(c2ncccn2)C1 [Example 537] | 159 nM |  | 
9.6 nM | CC(C)(O)[C@H](F)CNC(=O)c1cnc(-n2ncc3cc(C#N)cnc32)cc1N[C@@H]1CCN(C(=O)c2ccc(F)cc2F)C1 [Example 538] |  | 698 nM | 
6.3 nM | CC(C)(O)[C@H](F)CNC(=O)c1cnc(-n2ncc3cc(C#N)cnc32)cc1NC1CN(c2ncc(F)cn2)C1 [Example 539] | 256 nM |  | 
3 nM | CC(C)(O)[C@H](F)CNC(=O)c1cnc(-n2ncc3cc(C#N)cnc32)cc1NC1CCN(c2ncc(F)cn2)CC1 [Example 540] |  | 158 nM | 
14.4 nM | CC(C)(O)[C@H](F)CNC(=O)c1cnc(-n2ncc3cc(C#N)cnc32)cc1NC1CN(c2ncc(Cl)cn2)C1 [Example 541] |  | 149 nM | 
6.8 nM | CCOC(=O)N1CC(Nc2cc(-n3ncc4cc(C#N)cnc43)ncc2C(=O)NC[C@@H](F)C(C)(C)O)C1 [Example 543] |  | 404 nM | 
3.7 nM | CC(C)(O)[C@H](F)CNC(=O)c1cnc(-n2ncc3cc(C#N)cnc32)cc1NC1COC1 [Example 546] | 257 nM |  | 
16.6 nM | CC(C)(O)[C@H](F)CNC(=O)c1cnc(-n2ncc3cc(F)cnc32)cc1NC1CCCOC1 (stereo partly drawn) [Example 547] | 65 nM | 591 nM | 
10.3 nM | CC(C)(O)[C@H](F)CNC(=O)c1cnc(-n2ncc3cc(F)cnc32)cc1NC1COC1 [Example 550] | 416 nM |  | 
11.2 nM | CC(C)(O)CCNC(=O)c1cnc(-n2ncc3cc(C#N)cnc32)cc1NC1COC1 [Example 553] |  | 298 nM | 
5.5 nM | CC(C)(O)[C@H](F)CNC(=O)c1cnc(-n2ncc3cc(C#N)cnc32)cc1NC1COCC1(F)F (stereo partly drawn) [Example 554] |  | 370 nM | 
7 nM | CC(C)(O)[C@H]1CC[C@H](NC(=O)c2cnc(-n3ncc4cc(C#N)cnc43)cc2NC2COC2)CC1 [Example 555] |  | 47 nM | 
6.1 nM | N#Cc1cc2cnn(-c3cc(NC4COC4)c(C(=O)NCCC4CC4)cn3)c2nc1N [Example 558] |  | 615 nM | 
7.8 nM | CCCCNC(=O)c1cnc(-n2ncc3cc(C#N)cnc32)cc1NC1COC1 [Example 561] |  | 321 nM | 
8.9 nM | CCNc1cc(-n2ncc3cc(C#N)cnc32)ncc1C(=O)NC[C@@H](F)C(C)(C)O [Example 568] | 661 nM | 1370 nM | 
15.2 nM | CC(C)(O)[C@H](F)CNC(=O)c1cnc(-n2ncc3cc(C#N)cnc32)cc1NCc1cocn1 [Example 571] |  | 101 nM | 
15.3 nM | CC(C)(O)[C@H](F)CNC(=O)c1cnc(-n2ncc3cc(C#N)cnc32)cc1NCC(F)F [Example 574] |  | 258 nM | 
3.9 nM | CC(C)Nc1cc(-n2ncc3cnc(N)nc32)ncc1C(=O)NC[C@@H](F)C(C)(C)O [Example 579] |  | 269 nM | 
8.4 nM | CC(C)(O)[C@H](F)CNC(=O)c1cnc(-n2ncc3cc(C#N)cnc32)cc1NCC1(F)CCC1 [Example 581] |  | 227 nM | 
4.1 nM | C[C@H](F)CNc1cc(-n2ncc3cc(C#N)cnc32)ncc1C(=O)NC[C@@H](F)C(C)(C)O [Example 583] |  | 188 nM | 
8.5 nM | CC(C)(CN)CNc1cc(-n2ncc3cc(C#N)cnc32)ncc1C(=O)NC[C@@H](F)C(C)(C)O [Example 585] |  | 147 nM | 
13.8 nM | CC(C)(O)[C@H](F)CNC(=O)c1cnc(-n2ncc3cc(C#N)cnc32)cc1NCCNC(=O)OC(C)(C)C(F)(F)F [Example 587] |  | 298 nM | 
